Reference: US10226452B2, “Benzoxazolone derivatives as acid ceramidase inhibitors, and their use as medicaments” (FONDAZIONE ISTITUTO ITALIANO DI TECNOLOGIA, priority 2014, dated 2019)

Columns and labels:
[1] = biological target: sPLA2 (h) (type V) (Homo sapiens (Human), UniProt P39877); assay: Cerep enzyme inhibition screen: sPLA2; assay type: biochemical; conditions: mean of two determinations, read-out: Inhibitory activity (% Inh. at 10 μM), mean
Excerpt: Compound of Example 25 falling in both Formula (I) and (Ia) was selected to be tested for off-target effects on a set of enzymes that include proteases (aspartic, cysteine, and serine), cyclooxygenases as well as lipoxygenases and group IV phospholipase (sPLA2) (Table 3). [table]

[2] = test system: Raw264.7 cells; assay: sphingosine and ceramide levels in RAW264.7 cells; assay type: cell-based, mouse; conditions: 0.1-20 μM, 3 hours
Description: Specifically it is reported the concentration response of compound of Example 25 or vehicle (0.1% DMSO in DMEM) on AC activity and ceramide levels in RAW264.7 murine cell line. (A) Intact cells were treated with compound of Example 25 (0.1-20 μM) or vehicle and AC activity was measured 3 hours later in cell lysates. (B-E) Intact cells were exposed to compound of Example 25 (0.1-20 μM) for 3 hours and sphingosine/sphinganine (B), dihydroceramides (C), medium chain ceramides (D), long chain ceramides (E) were quantified. Results are expressed as mean±s.e.m. (n=3). *p<0.05, **p<0.01, ***p<0.001 vs vehicle, two-way ANOVA followed by Dunnet.
Lipids were extracted from mouse tissue lysate with a chloroform/MeOH mixture (2:1 v/v, 3 mL) containing internal standards. The organic phase was collected, dried under nitrogen, and dissolved in chloroform/MeOH (1:3 v/v) for LC-MS analyses. Ceramides, sphingosine and sphinganine were analyzed by LC-MS/MS, using a Waters Acquity UPLC coupled with a Waters Xevo TQMS and interfaced with ESI. […]
Tissue-derived sphingosine and sphinganine were identified by comparison of their LC retention times and MS^2 fragmentation patterns with those of authentic standards (Avanti Polar Lipids). Extracted ion chromatograms were used to quantify sphingosine ([…], m/z 300.5>282.5) and sphinganine standard (C18:0, m/z 303>285). […]

[3] = test system: PLC; assay: Cerep enzyme inhibition screen: PLC; assay type: biochemical; conditions: mean of two determinations
Excerpt: Compound of Example 25 falling in both Formula (I) and (Ia) was selected to be tested for off-target effects on a set of enzymes that include proteases (aspartic, cysteine, and serine), cyclooxygenases as well as lipoxygenases and group IV phospholipase (sPLA2) (Table 3).

[4] = biological target: human (hAC) acid ceramidase (Homo sapiens (Human), UniProt Q13510); assay: fluorescent-based in vitro assay on human acid ceramidase; assay type: biochemical; conditions: hAC-enriched lysosomal lysate from HEK293 cells; fluorogenic probe 5 μM; pH 4.5
human (hAC) acid ceramidase, sequence (Q13510 22-142): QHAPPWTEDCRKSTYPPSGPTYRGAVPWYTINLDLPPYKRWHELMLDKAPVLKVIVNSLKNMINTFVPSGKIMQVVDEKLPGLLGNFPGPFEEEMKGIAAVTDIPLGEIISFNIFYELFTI
human (hAC) acid ceramidase, sequence (Q13510 143-395): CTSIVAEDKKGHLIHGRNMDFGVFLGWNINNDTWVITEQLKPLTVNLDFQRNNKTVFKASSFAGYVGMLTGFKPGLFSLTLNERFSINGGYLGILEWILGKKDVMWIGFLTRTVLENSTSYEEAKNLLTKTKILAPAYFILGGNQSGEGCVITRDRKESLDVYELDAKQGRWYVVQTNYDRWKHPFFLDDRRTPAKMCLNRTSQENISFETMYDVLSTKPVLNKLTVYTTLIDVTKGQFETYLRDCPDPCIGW
Excerpt: To evaluate the potency of the compounds towards acid ceramidase, a fluorescence-based in vitro assay previously described in literature (Bedia C et al., ChemBioChem, 2007, 8, 642-648) was implemented and optimized. This assay is based on a “fluorogenic probe” containing a coumarin group and a sphingoid base moiety (see figure below), which is not fluorescent in itself, but upon enzymatic cleavage by acid ceramidase followed by a chemical transformation liberates the fluorescent molecule umbelliferone (7-hydroxychromen-2-one). By quantifying the generation of umbelliferone using a fluorescence plate-reader, the level of enzymatic activity can be measured, whereby IC50 values of compounds that inhibit this activity can be generated.
Lysosomal lysate, enriched with acid ceramidase, was prepared from a cell line stably expressing human acid ceramidase. In the assay, the fluorogenic probe (or substrate) serves as a ceramide-analogue, which is recognized and hydrolyzed at the amide bond by acid ceramidase from the enriched lysate to yield the fatty acid and coumarinic aminodiol. By treating the solution with sodium periodate (NaIO4), the coumarinic aminodiol is subsequently oxidized into an aldehyde intermediate, which undergoes a β-elimination reaction to release the strongly fluorescent umbelliferone.
A lysosomal human acid ceramidase protein preparation was obtained from HEK293 cells stably expressing acid ceramidase suspended in 20 mM Tris HCl (pH 7.5) with 0.32 M sucrose. The cell solution was sonicated and centrifuged at 800×g for 15 min at 4° C. Supernatants were then centrifuged at 12,000×g for 30 min at 4° C. Pellets were re-suspended in PBS pH 7.4 and subjected to two freeze-thaw cycles at −80° C. The suspension was finally centrifuged at 105,000×g for 1 hour at 4° C. and protein concentration was measured in the supernatant with bicinchinonic-acid based protein assay. This human acid ceramidase-enriched preparation allowed us to further optimize the enzymatic assay and to use smaller amounts of lysate (2 μg/well) and substrate (5 μM).
The assay was performed in Optiplate 96-wells black plates, with each reaction well containing a mixture of 25 mM sodium acetate buffer pH 4.5 and a fixed amount of protein (2 μg) in a volume of 85 μL. After 30 mins of pre-incubation with test compounds (diluted 20× from DMSO stock solutions at different concentrations), the fluorogenic probe was added (diluted 20× from EtOH stock solution, final concentration 5 μM). After incubation for 3 hours at 37° C., the reactions were stopped with 50 μL of methanol and 100 μL of a 2.5 mg/mL NalO4 fresh solution in 100 mM Glycine/NaOH pH 10.6. The plate was incubated at 37° C. for 2 hours in the dark and fluorescence intensities were measured at excitation/emission wavelengths of 360/446 nm. Negative control samples consisted of the same incubation mixture in the absence of protein extracts. The IC50 values or percent of inhibition, at the indicated concentration, of selected compounds described in the invention are reported in Table 2.

sPLA2 (h) (type V), sequence (P39877 21-138): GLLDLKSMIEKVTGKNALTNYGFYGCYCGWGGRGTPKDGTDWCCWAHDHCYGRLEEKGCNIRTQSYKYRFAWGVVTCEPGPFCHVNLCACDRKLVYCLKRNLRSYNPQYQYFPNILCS

Row | SMILES | inhibition at 10 µM [1] [%] | di-hydro ceramides and ceramide species levels [2] | sphingosine levels [2] | Inhibitory activity (% Inh. at 10 μM), mean [3] [%] | IC50 [4] [nM]
1 | O=C(NCCCCc1ccccc1)n1c(=O)oc2cc(-c3ccc(F)cc3)ccc21 [Example 25, 6-(4-Fluorophenyl)-2-oxo-N-(4-phenylbutyl)-1,3-benzoxazole-3-carboxamide] | 1.1 | intracellular accumulation of various di-hydro ceramides and ceramide species | parallel decrease in sphingosine levels | −19.7 | 
2 | O=C(NCCCCc1ccccc1)n1c(=O)oc2cc(Br)ccc21 [Example 7, 6-Bromo-2-oxo-N-(4-phenylbutyl)-1,3-benzoxazole-3-carboxamide] |  |  |  |  | 33 ± 9
